Reference: ChEMBL document CHEMBL1125494, “A molecular modeling study of the interactions between the antiestrogen drug tamoxifen and several derivatives, and the calcium-binding protein calmodulin” (J Med Chem, 1992)

Assay: Inhibition of calmodulin dependent cAMP phosphodiesterase.

Compound | IC50
CC/C(=C(\c1ccccc1)c1ccc(OCCN(CC)CC)cc1)c1ccccc1 | 10 µM
CCC(=C(c1ccc(O)cc1)c1ccc(OCCN(C)C)cc1)c1ccccc1 | 19 µM
CC/C(=C(\c1ccccc1)c1ccc(OCCN(C)C)cc1)c1ccccc1 [TAMOXIFEN] | 6.75 µM
C/C(=C(\c1ccccc1)c1ccc(OCCN(C)C)cc1)c1ccccc1 | 20 µM
CC/C(=C(\c1ccc(I)cc1)c1ccc(OCCN(C)C)cc1)c1ccccc1 | 2.3 µM
CC/C(=C(\c1ccccc1)c1ccc(OCCN2CCNCC2)cc1)c1ccccc1 | > 50 µM
